Measured values: US9102638B2, “Amidobenzothiazoles and process for the preparation thereof” (COUNCIL OF SCIENTIFIC & INDUSTRIAL RESEARCH, priority 2011, dated 2015)

Assays:
Type in all cases: cell-based
K-562 = experiment: In vitro cytotoxicity, NCI screen: K-562 (Leukemia); conditions: Homo sapiens, K562; read-out: GI50 values (μM conc.)
Protocol: (§1) The in vitro anticancer activity studies for these amidobenzothiazoles were carried out at the National Cancer Institute, Maryland, USA.
(§2) The amidobenzothiazoles have been tested against sixty human tumor cell lines derived from nine cancer types (leukemia cancer cell line, non-small cell lung cancer cell line, colon cancer cell line, CNS cancer cell line, melanoma cancer cell line, ovarian cancer cell line, renal cancer cell line, prostate cancer cell line and breast cancer cell lines). For these compounds results are expressed in GI50 values of that particular cancer cell at micro molar (μM) concentration as per NCI protocol.

HOP-92 = experiment: In vitro cytotoxicity, NCI screen: HOP-92 (Non-small cell lung); conditions: Homo sapiens; HOP-92, Non-small cell lung panel, NCI protocol; read-out: GI50 values (μM conc.)
Protocol: as §1, §2

SF-268 = experiment: In vitro cytotoxicity, NCI screen: SF-268 (CNS); conditions: Homo sapiens, read-out: GI50 values (μM conc.)
Protocol: as §1, §2

HS 578T = experiment: In vitro cytotoxicity, NCI screen: HS 578T (Breast); conditions: Homo sapiens, read-out: GI50 values (μM conc.)
Protocol: as §1, §2

[1] = test system: prostate cancer cell lines; experiment: In vitro activity against prostate cancer cell lines (panel range); conditions: Homo sapiens, read-out: GI50 values, range over the listed compounds and the panel
Protocol: as §1, §2

SK-OV-3 = experiment: In vitro cytotoxicity, NCI screen: SK-OV-3 (Ovarian); conditions: Homo sapiens; SK-OV-3, Ovarian panel, NCI protocol; read-out: GI50 values (μM conc.)
Protocol: as §1, §2

CAKI-1 = experiment: In vitro cytotoxicity, NCI screen: CAKI-1 (Renal); conditions: Homo sapiens; CAKI-1, Renal panel, NCI protocol; read-out: GI50 values (μM conc.)
Protocol: as §1, §2

EKVX = experiment: In vitro cytotoxicity, NCI screen: EKVX (Non-small cell lung); conditions: Homo sapiens, Non-small cell lung panel, NCI protocol, read-out: GI50 values (μM conc.)
Protocol: as §1, §2

HT29 = experiment: In vitro cytotoxicity, NCI screen: HT29 (Colon); conditions: Homo sapiens, HT-29; HT29, Colon panel, NCI protocol; read-out: GI50 values (μM conc.)
Protocol: as §1, §2

CNS cancer cell lines = experiment: In vitro activity against CNS cancer cell lines (panel range); conditions: Homo sapiens, read-out: GI50 values, range over the listed compounds and the panel
Protocol: as §1, §2

DU-145 = experiment: In vitro cytotoxicity, NCI screen: DU-145 (Prostate); conditions: Homo sapiens, read-out: GI50 values (μM conc.)
Protocol: as §1, §2

SNB-75 = experiment: In vitro cytotoxicity, NCI screen: SNB-75 (CNS); conditions: Homo sapiens; SNB-75, CNS panel, NCI protocol; read-out: GI50 values (μM conc.)
Protocol: as §1, §2

UO-31 = experiment: In vitro cytotoxicity, NCI screen: UO-31 (Renal); conditions: Homo sapiens; UO-31, Renal panel, NCI protocol; read-out: GI50 values (μM conc.)
Protocol: as §1, §2

NCI-H460 = experiment: In vitro cytotoxicity, NCI screen: NCI-H460 (Non-small cell lung); conditions: Homo sapiens; NCI-H460, Non-small cell lung panel, NCI protocol; read-out: GI50 values (μM conc.)
Protocol: as §1, §2

BT-549 = experiment: In vitro cytotoxicity, NCI screen: BT-549 (Breast); conditions: Homo sapiens, read-out: GI50 values (μM conc.)
Protocol: as §1, §2

[2] = test system: leukemia cancer cell lines; experiment: In vitro activity against leukemia cancer cell lines (panel range); conditions: Homo sapiens, read-out: GI50 values, range over the listed compounds and the panel
Protocol: as §1, §2

SK-MEL-2 = experiment: In vitro cytotoxicity, NCI screen: SK-MEL-2 (Melanoma); conditions: Homo sapiens; SK-MEL-2, Melanoma panel, NCI protocol; read-out: GI50 values (μM conc.)
Protocol: as §1, §2

MALME-3M = experiment: In vitro cytotoxicity, NCI screen: MALME-3M (Melanoma); conditions: Homo sapiens, Melanoma panel, NCI protocol, read-out: GI50 values (μM conc.)
Protocol: as §1, §2

MOLT-4 = experiment: In vitro cytotoxicity, NCI screen: MOLT-4 (Leukemia); conditions: Homo sapiens; MOLT-4, Leukemia panel, NCI protocol; read-out: GI50 values (μM conc.)
Protocol: as §1, §2

SW-620 = experiment: In vitro cytotoxicity, NCI screen: SW-620 (Colon); conditions: Homo sapiens; SW-620, Colon panel, NCI protocol; read-out: GI50 values (μM conc.)
Protocol: as §1, §2

LOX IMVI = experiment: In vitro cytotoxicity, NCI screen: LOX IMVI (Melanoma); conditions: Homo sapiens, Melanoma panel, NCI protocol, read-out: GI50 values (μM conc.)
Protocol: as §1, §2

RXF 393 = experiment: In vitro cytotoxicity, NCI screen: RXF 393 (Renal); conditions: Homo sapiens; RXF 393, Renal panel, NCI protocol; read-out: GI50 values (μM conc.)
Protocol: as §1, §2

MDA-MB-435 = experiment: In vitro cytotoxicity, NCI screen: MDA-MB-435 (Melanoma); conditions: Homo sapiens; MDA-MB-435, Melanoma panel, NCI protocol; read-out: GI50 values (μM conc.)
Protocol: as §1, §2

HOP-62 = experiment: In vitro cytotoxicity, NCI screen: HOP-62 (Non-small cell lung); conditions: Homo sapiens; HOP-62, Non-small cell lung panel, NCI protocol; read-out: GI50 values (μM conc.)
Protocol: as §1, §2

786-0 = experiment: In vitro cytotoxicity, NCI screen: 786-0 (Renal); conditions: Homo sapiens; 786-0, Renal panel, NCI protocol; read-out: GI50 values (μM conc.)
Protocol: as §1, §2

RPMI-8226 = experiment: In vitro cytotoxicity, NCI screen: RPMI-8226 (Leukemia); conditions: Homo sapiens; RPMI-8226, Leukemia panel, NCI protocol; read-out: GI50 values (μM conc.)
Protocol: as §1, §2

UACC-62 = experiment: In vitro cytotoxicity, NCI screen: UACC-62 (Melanoma); conditions: Homo sapiens; UACC-62, Melanoma panel, NCI protocol; read-out: GI50 values (μM conc.)
Protocol: as §1, §2

NCI/ADR-RES = experiment: In vitro cytotoxicity, NCI screen: NCI/ADR-RES (Ovarian); conditions: Homo sapiens, Ovarian panel, NCI protocol, read-out: GI50 values (μM conc.)
Protocol: as §1, §2

NCI-H226 = experiment: In vitro cytotoxicity, NCI screen: NCI-H226 (Non-small cell lung); conditions: Homo sapiens; NCI-H226, Non-small cell lung panel, NCI protocol; read-out: GI50 values (μM conc.)
Protocol: as §1, §2

MCF7 = experiment: In vitro cytotoxicity, NCI screen: MCF7 (Breast); conditions: Homo sapiens; MCF7, Breast panel, NCI protocol; read-out: GI50 values (μM conc.)
Protocol: as §1, §2

Compound | GI50 (K-562) | GI50 (HOP-92) | GI50 (SF-268) | GI50 (HS 578T) | GI50 [1] | GI50 (SK-OV-3) | GI50 (CAKI-1) | GI50 (EKVX) | GI50 (HT29) | GI50 (CNS cancer cell lines) | GI50 (DU-145) | GI50 (SNB-75) | GI50 (UO-31) | GI50 (NCI-H460) | GI50 (BT-549) | GI50 [2] | GI50 (SK-MEL-2) | GI50 (MALME-3M) | GI50 (MOLT-4) | GI50 (SW-620) | further results
COc1ccc2nc(NC(=O)COc3cc(/C=C\c4cc(OC)c(OC)c(OC)c4)ccc3OC)sc2c1 [Compound 8g, N1-(6-methoxy-1,3-benzothiazol-2-yl)-2-{2-methoxy-5-[(Z)-2-(3,4,5-trimethoxyphenyl)-1-ethenyl]phenoxy}acetamide] | 3.6 µM | 6.28 µM | 4.31 µM | 4.15 µM | 0.18 to 22.9 µM | 4.69 µM | 3.2 µM | 5.11 µM | 3.34 µM | 0.045 to 18.8 µM | 2.04 µM | 1.91 µM | 4.31 µM | 3.73 µM | 21.2 µM | 0.037 to 29.9 µM | 4.07 µM | > 100 µM | 3.87 µM | 5.1 µM | GI50 (LOX IMVI): 4.17 µM; GI50 (RXF 393): 2.5 µM; GI50 (MDA-MB-435): 1.16 µM; GI50 (HOP-62): 23 µM; GI50 (786-0): 7.52 µM; GI50 (RPMI-8226): 5.43 µM; GI50 (UACC-62): 5.93 µM; GI50 (NCI/ADR-RES): 2.3 µM; GI50 (NCI-H226): 4.51 µM; GI50 (MCF7): 2.88 µM
COc1ccc(/C=C\c2cc(OC)c(OC)c(OC)c2)cc1OCC(=O)Nc1nc2ccc(C(F)(F)F)cc2s1 [Compound 8i, N1-(6-(trifluoromethyl)-1,3-benzothiazol-2-yl)-2-{2-methoxy-5-[(Z)-2-(3,4,5-trimethoxyphenyl)-1-ethenyl]phenoxy}acetamide] | 3.3 µM | 2.88 µM | 3.85 µM | 4.18 µM | 0.18 to 22.9 µM | 3.29 µM | 3.1 µM | 6.25 µM | 14.9 µM | 0.045 to 18.8 µM | 2.51 µM | 1.58 µM | 3.59 µM | 3.55 µM | 5.23 µM | 0.037 to 29.9 µM | 3.98 µM | > 100 µM | 3.75 µM | 4.65 µM | GI50 (LOX IMVI): 4.01 µM; GI50 (RXF 393): 2.27 µM; GI50 (MDA-MB-435): 1.84 µM; GI50 (HOP-62): 5.22 µM; GI50 (786-0): 6.96 µM; GI50 (RPMI-8226): 5.48 µM; GI50 (UACC-62): 3.9 µM; GI50 (NCI/ADR-RES): 2.12 µM; GI50 (NCI-H226): 3.17 µM; GI50 (MCF7): 3.16 µM
COc1ccc(/C=C/C(=O)c2cc(OC)c(OC)c(OC)c2)cc1OCC(=O)Nc1nc2ccc(OC(F)(F)F)cc2s1 [Compound 9j, N1-(6-(trifluoromethoxy)-1,3-benzothiazol-2-yl)-2-{2-methoxy-5-[(E)-3-oxo-3-(3,4,5-trimethoxyphenyl)-1-propenyl]phenoxy}acetamide] | 0.43 µM | 2.14 µM | 1.2 µM | 3.08 µM | 0.18 to 22.9 µM | 2.16 µM | 2.2 µM | 5.11 µM | 3.66 µM | 0.045 to 18.8 µM | 1.56 µM | 0.34 µM | 1.61 µM | 2.43 µM | 2.71 µM | 0.037 to 29.9 µM | 4.97 µM | 2.69 µM | 2.89 µM | 1.08 µM | GI50 (LOX IMVI): 0.47 µM; GI50 (RXF 393): 1.58 µM; GI50 (MDA-MB-435): 0.3 µM; GI50 (HOP-62): 2.12 µM; GI50 (786-0): 2.26 µM; GI50 (RPMI-8226): 2.02 µM; GI50 (UACC-62): 9.52 µM; GI50 (NCI/ADR-RES): 0.49 µM; GI50 (NCI-H226): 3.35 µM; GI50 (MCF7): 1.32 µM
